Data on two molecules can be found in patent publication US20250262167A1, “COMPOUNDS, TARGETS AND PATHWAYS FOR MACROPHAGE MODULATION” (Massachusetts Institute of Technology, priority 2020, published 2025).

In one data set the test system is β-arrestin2. Put plainly: β-arrestin2 translocation assay (TIRF microscope). Conditions: 10 min, ImKCs and BMDMs; DPI 50 nM, S1P 3 mM. It is filed as cell-based, mouse. The procedure: FIGS. 21A-21I show DPI stimulates glycolysis through GPR3 and β-arrestin2. FIGS. 21A-21B show DPI-stimulated glycolysis is independent of the NOX activity. […] The mean fluorescence intensity (MFI) of 2-NBDG in cells was measured by flow cytometry and normalized to DMSO controls of wildtype BMDMs. Data are presented as the mean±sd (n=3). […] ImKCs were transfected with siRNA specific for Gpr3 or a scramble siRNA as control. […] Data are presented as the mean±sd (n=4). […] Data are presented as the mean±sd (n=12). […] Abbr2^−/− ImKC were constructed by CRISPR-Cas9-mediated gene editing. […] Data are presented as the mean±sd (n=4). […] ImKCs were transfected with Abbr2-GFP fusion gene and stimulated with DMSO, DPI (50 nM), or S1P (3 mM). The GFP signal was captured with a TIRF microscope at indicated time points. Shown are representative data of GFP signal at 0 min and 10 min, and merged signal from three independent experiments.
Specific parameters for glycolytic capacity and glycolytic reserve were calculated and summarized based on two independent experiments. […] The GFP signal was captured with a TIRF microscope at indicated time points. […]
BMDMs or ImKCs were cotransfected with plasmids encoding FLAG-GPR3-GFP or β-arrestin2-RFP. […] The fluorescent signals of membrane-bound receptor or β-arrestin2 were collected as live images using a total internal reflection fluorescence (TIRF) microscope (Olympus). […]

The conditions of data set [1]: KC-specific Pkm−/− mice.
Protocol: FIGS. 24G-24H show DPI's effect on KC-specific Pkm^−/− mice fed with HFD. Male KC-specific Pkm^−/− mice at the age of 5 weeks were fed with HFD for a total of 8 weeks. Three weeks after HFD, half of the mice were given DPI in vehicle (2 mg/kg) and the other half were given vehicle every 5 days for a total of 6 doses. Body weights were monitored weekly (FIG. 24G). Data are presented as the mean±sd from two independent experiments with 6 mice per group. Comparison of H&E staining of liver sections after 8 weeks on HFD. Shown are representative H&E staining from one mouse per group. Arrows in FIG. 24F and FIG. 24H point to lipid droplets. Scale bar: 100 μm. P values were calculated by student t-test. * P<0.05, ** P<0.01, *** P<0.001, **** P<0.0001.
FIGS. 34A-34C show effect of DPI on Kupffer cell-specific Pkm^−/− mice on HFD. […] KC-specific Pkm^−/− mice were given HFD for a total of 8 weeks. Three weeks after HFD, half of the mice were given DPI in vehicle (2 mg/kg) and the other half were given vehicle every 5 days for a total of 6 doses. At 7 weeks plus 3 days, mice were starved overnight (12˜16 hrs) with only water. Glucose (1 mg/kg) was injected intraperitoneally and blood glucose levels were monitored at the indicated time. […] Sera from mice were collected at the end of HFD feeding and activities of AST and ALT were measured by colorimetric assay kits (Sigma). Shown are representative data from two independent experiments with 5˜6 mice per group. P values were calculated by student t-test. n.s. not significant. * P<0.05.
KC-specific Pkm^−/− mice were fed with HFD for 8 weeks starting at 5 weeks of age. Three weeks after HFD, half of the mice were given vehicle and the other half was given DPI (2 mg/kg) i.p. every 5 days.
In data set [2] the test system is hMDMs differentiated into M2 by IL-4 plus IL-13. In words: Reprogramming screen and dosage response on M2-like differentiated macrophages.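 Note: human monocyte-derived macrophages held 24 h in 5 ng/mL IL-4 plus IL-13 before 24 h compound exposure, with cell shape measured from images in 384-well plates.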 Conditions: Homo sapiens, Macrophage, 24 h, read-out: EC.
The next data set deals with hMDMs. Put plainly: RNA-seq transcriptional response of hMDMs (GSEA, GO enrichment). The data set is classed as cell-based, human. Conditions: hMDMs, 2.5 μM, 24 hours.
For data set [3], the system named is mouse BMMs with anti-CD20 labelled human B lymphoma cells (GMB). In words: ADCP of mouse macrophages. The data set is classed as cell-based. Set-up: dose or concentration left out as unconfirmed. Conditions: co-culture 2 hrs. The procedure: Conditioned medium (CM) was collected and filtered. B16F10 melanoma cells were cultured for 12 hrs with CM or CM heat-inactivated at 95° C. for 5 min. The number of tumor cells were quantified by flow cytometry. Data were summarized from two independent experiments. * P<0.05 by T-test. P values are shown based on t-test. […] Mouse BMMs (FIG. 14B) or hMDM (FIG. 14C) were treated with […] thiostrepton for 24 hrs, then co-cultured with equal number of eFluro670 and anti-CD20 labelled human B-cell lymphoma cells for 2 hrs, and analyzed by flow cytometry. Macrophages that have phagocytosed tumor cells are identified as efluro670+ and CD14+. Shown are representative eFluro670 histograms gating on CD14+ macrophages from three different experiments.
To examine whether thiostrepton-activating macrophages or conditioned medium have effects on tumor cell growth, BMMs were treated with thiostrepton for 24 hrs. Equal numbers of primed BMMs and melanoma cells (B16F10) were co-cultured for 12 hrs. […] Thiostrepton elevated ADCP of both human and mouse macrophages (FIGS. 14B-14C).

Data set [4] in a line: Macrophage numbers and gut bacterial counts in non-tumor bearing mice. It is filed as in vivo, mouse. The procedure:
(n=3). Shown are representative F4/80 versus CD11b staining profiles gating on CD45+ cells. I.P.: intraperitoneal injection; S.C.: paratumor subcutaneous injection. […] Data shown are mean±s.d. n.s., not significant by T-test.
Next, we examined whether thiostrepon has anti-tumor effect in vivo through activating macrophages. B16F10 melanoma cells were injected subcutaneously into syngeneic C57BL/6 mice. 6 and 12 days later, tumor-bearing mice were treated with either vehicle (DMSO), melanoma specific antibody TA99, thiostrepton, or combination of TA99 and thiostrepton by intraperitoneal injection (I.P.). […] Since thiostrepton inhibits cell proliferation and is an antibiotic, to exclude its systematic effects on immune cells and on gut microbiome, tumor-bearing mice were treated by para-tumor subcutaneous injection (S.C.) with a lower dose of thiostrepton (20 mg/kg). […] Consistently, more abundant macrophages were stained positive for F4/80 by immunochemistry in tumor sections from mice treated with thiostrepton or thiostrepton plus TA99 than mice treated with vehicle or T99 (FIG. 6E).

Like-named read-outs stand apart in the source and are kept apart here.

Protocol for c-Myc: Transfected cells were not treated or treated with DPI (50 and 500 nM) for 6 hrs and luciferase activities were measured. Data are presented as the mean±sd (n=5). P values were calculated by student t-test. * P<0.05, ** P<0.01, *** P<0.001, **** P<0.0001.
The c-Myc activity was assessed using the Myc Reporter kit (BPS Biosciences) and the Dual-Luciferase Reporter System (Promega) according to the manufacturers' instructions. Briefly, 100 μL (1.5×10^5 cells/mL) control and Kupffer cells were seeded into 96-well plates. After overnight incubation, when cells reached ˜50% confluency, 1 μL of Reporter A (60 ng/μL) in the Myc Reporter kit was transfected into cells using Turbofectin 8.0. After 48 hours, cells were lysed in 25 μL Passive Lysis Buffer (provided in the Dual-Luciferase Reporter kit). 20 μL of cell lysate was transferred to 96-well plates and placed in a 96-well microplate luminometer (GloMax-Multi, Promega). 100 μL Luciferase Assay Reagent II and 100 μL Stop & Glo Reagent (both provided in the Dual-Luciferase Reporter kit) were sequentially injected, and firefly and Renilla luciferase activities were automatically measured. c-Myc activities were determined by the ratios of firefly to Renilla luciferase activities.

For `c1ccc2c(c1)[I+]c1ccccc1-2` [Diphenyleneiodonium chloride], the “translocation of β-arrestin2 from cytosol to the plasma membrane” value with β-arrestin2 is reported as “stimulated translocation”. Besides, the c-Myc luciferase activity entry in the data set with c-Myc (Pkm−/− ImKCs) is on record as “not”; in the data set on c-Myc (parental ImKCs, 50 and 500 nM, 6 hrs), “induced”. Moreover, the iWAT entry in data set [1] is “significantly lower level”. The “HFD-induced body-weight gain and lipid droplet deposition in the livers” value in data set [1] (2 mg/kg i.p. every 5 days) was “did not reduce”. Besides, in data set [1] (with or without DPI), the “glucose tolerance, serum AST and ALT levels” value was “similar”. Also, the EC (M1 Z-score cutoff) in data set [2] was 0.336 µM.

With `C=C(NC(=O)C(=C)NC(=O)c1csc(C2=N[C@@H]3c4csc(n4)[C@H]4NC(=O)c5csc(n5)[C@H]([C@](C)(O)[C@@H](C)O)NC(=O)[C@H]5CSC(=N5)/C(=C/C)NC(=O)[C@H]([C@@H](C)O)NC(=O)c5csc(n5)[C@]3(CC2)NC(=O)[C@H](C)NC(=O)C(=C)NC(=O)[C@H](C)NC(=O)[C@H]([C@@H](C)CC)N[C@@H]2C=Cc3c([C@H](C)O)cc(nc3[C@H]2O)C(=O)O[C@@H]4C)n1)C(N)=O` [Thiostrepton], in the data set on hMDMs, the “expression of M2 chemokine CCL24” value is “down-regulate”; the “expression of proinflammatory cytokines TNFα and IL-1β” value is “polarized to express”. Moreover, the ADCP result in data set [3] is “elevated”. The “total bacterial counts in the gut” value in data set [4] (both dosing strategies) was “did not change”. Further, the “macrophages in the spleen and bone marrow” value in data set [4] (intraperitoneal administration) is listed as “increased numbers”. In addition, in data set [4] (subcutaneous administration), the macrophage numbers result is “did not have significant effects”. Further, the EC (M1 Z-score cutoff) in data set [2] was found to be 0.408 µM.
